Reference: patent US12275733B2, “Substituted pyrido[3,4-b]indoles for the treatment of cartilage disorders” (Sanofi, priority 2016, dated 2025)

System: ATDC5 cells
Assay: Chondrogenesis activity assay in ATDC5 cells (collagen type II induction, immunofluorescence)
Assay type: cell-based, mouse
Settings: Mus musculus; for EC50: collagen type II induction in ATDC5 cells, concentration reaching 50% of maximum induction; for Emax: maximum percent induction of collagen type II relative to internal reference compound at 10 μM, ATDC5 cells
Procedure: A) Chondrogenesis Activity Assay in ATDC5 Cells
The chondrogenic potential of the compounds of the invention was determined using clonal mouse chondrogenic ATDC5 cells (T. Atsumi et al., Cell Differ. Dev. 1990, 30, 109-116). ATDC5 cells are derived from mouse embryonic AT805 teratocarcinoma cells and are used frequently to study the multistep chondrogenic differentiation process from precursor cells into chondrocytes (C. Shukunami et al., Exp. Cell Res. 1998, 241, 1-11; H. Aklyami et al., J. Bone Miner. Res. 1996, 11, 22-28; H. Akiyami et al., Biochem. Biophys. Res. Commun. 1997, 235, 142-147; C. Shukunami et al., J. Cell Biol. 1996, 133, 457-468; C. Shukunami et al., J. Bone Miner. Res. 1997, 12, 1174-1188). Undifferentiated ATDC5 cells grow in vitro until confluence, showing a fibroblast-like morphology. In the presence of insulin, cells undergo transient condensation and form numerous nodular structures (cartilage nodules). The cartilagenous nature of these nodules was shown by Alcian Blue staining as evidence of the production of proteoglycan (aggrecan) and collagen type II expression (by expression analysis), both molecular markers of chondrocytes (C. Shukunami et al., J. Cell Biol. 1996, 133, 457-468).
Chondrogenic differentiation of ATDC5 cells into chondrocytes by the compounds of the invention was determined by measuring the induction of type II collagen protein as a marker of chondrocytes, a structural component of the extracellular matrix which constitutes more than 80% of cartilage mass (D. R. Eyre, Clin. Orthop. Relat. Res. 2004, 427 Suppl, S118-S122). ATDC5 cells were obtained from RIKEN and cultured as monolayer in basal culture medium (Dulbecco's Modified Eagle Medium/Nutrient Mixture F-12 (DMEM/F12, Invitrogen, #31331-093) supplemented with 10 μg/ml Transferrin (Roche, #10652 202001), 3×10E−8 M sodium seienite (Sigma, #S-5261) and 5% Fetal Calf Serum (FCS Gold, PAA, #A15-251)), at 37° C., and 5% CO2 in plastic flasks of 75 cm^2 or 300 cm^2 subconfluently for propagation. ATDC5 cells were harvested and resuspended in differentiation culture medium that consisted of basal culture medium complemented with 10 μg/ml insulin (Sigma, #19278), to initiate chondrogenic differentiation. For studying the effect of test compounds, the ATDC5 cells were plated in 96-well plates (3.0×10E4 cells per well in 200 μl of differentiation culture medium). Test compounds dissolved in DMSO were added to yield increasing compound concentrations, typically from 40 nM to 10 μM, and a final DMSO concentration of 0.1%. On each 96-well plate, control wells containing no test compound but the same concentration of DMSO, i.e. untreated cells, were included and used as reference for the determination of the effect of the test compounds on the cells, and wells containing an internal reference compound at a concentration of 10 μM were included and used as positive control and for standardizing the results. Cells in the wells were incubated for 4 days at 37° C., and 5% CO2, followed by quantification of intracellular collagen type II.
Quantification of collagen type II in the ATDC5-cells was done by immunofluorescence staining of collagen type II, and fluorescence intensity was measured using a cellular high content imaging system (ImageXpress, Molecular Device). For immunofluorescence staining of intracellular collagen, medium was removed after compound incubation and cells were fixed with 200 μl/well methanol/water (95%/5%). Cells were permeabilized in 200 μl/well phosphate-buffered saline (PBS) containing 0.2% Triton X100 for 15 min and, after removal of the solution, blocked for 30 min with 200 μl/well PBS/0.2% Triton X100 containing 1% bovine serum albumin (BSA) to avoid unspecific binding. After the blocking step, the solution was removed and collagen type II staining solution was added. […]

Structure (SMILES) | EC50 [nM] | Emax [%]
Cc1nccc2c1[nH]c1c(-c3ccc(Cl)nc3)cc(Cl)cc12 [Example 77, 6-Chloro-8-(6-chloro-pyridin-3-yl)-1-methyl-9H-pyrido[3,4-b]indole] | 580 | > 80
CCn1c2c(-c3cncc(Cl)c3)cc(Cl)cc2c2ccnc(C)c21 [Example 78, 6-Chloro-8-(5-chloro-pyridin-3-yl)-9-ethyl-1-methyl-9H-pyrido[3,4-b]indole] | > 10000 | < 20
CCn1c2c(-c3ccc(Cl)nc3)cc(Cl)cc2c2ccnc(C)c21 [Example 79, 6-Chloro-8-(6-chloro-pyridin-3-yl)-9-ethyl-1-methyl-9H-pyrido[3,4-b]indole] | 3900 | > 80
FC(F)(F)Cn1c2cnccc2c2cc(Cl)cc(-c3ccc(NC4CCCCC4)nc3)c21 [Example 80, (5-[6-Chloro-9-(2,2,2-trifluoro-ethyl)-9H-pyrido[3,4-b]indol-8-yl]-pyridin-2-yl)-cyclohexyl-amine] | 1200 | 20 to 50
FC(F)(F)Cn1c2cnccc2c2cc(Cl)cc(-c3ccc(N4CCCC4)nc3)c21 [Example 81, 6-Chloro-8-(6-pyrrolidin-1-yl-pyridin-3-yl)-9-(2,2,2-trifluoro-ethyl)-9H-pyrido[3,4-b]indole] | 4100 | > 80
Fc1cncc(-c2cc(Cl)cc3c4ccncc4n(CC(F)(F)F)c23)c1 [Example 82, 6-Chloro-8-(5-fluoro-pyridin-3-yl)-9-(2,2,2-trifluoro-ethyl)-9H-pyrido[3,4-b]indole] | 2000 | 20 to 50
Cc1nc(Cl)ccc1-c1cc(Cl)cc2c3ccncc3n(CC(F)(F)F)c12 [Example 83, 6-Chloro-8-(6-chloro-2-methyl-pyridin-3-yl)-9-(2,2,2-trifluoro-ethyl)-9H-pyrido[3,4-b]indole] | 2100 | 20 to 50
CN(C)c1ccc(-c2cc(Cl)cc3c4ccncc4n(CC(F)(F)F)c23)cn1 [Example 84, (5-[6-Chloro-9-(2,2,2-trifluoro-ethyl)-9H-pyrido[3,4-b]indol-8-yl]-pyridin-2-yl)-dimethyl-amine] | > 10000 | 20 to 50
COc1ncc(-c2cc(Cl)cc3c4ccncc4n(CC(F)(F)F)c23)cc1F [Example 85, 6-Chloro-8-(5-fluoro-6-methoxy-pyridin-3-yl)-9-(2,2,2-trifluoro-ethyl)-9H-pyrido[3,4-b]indole] | > 10000 | 20 to 50
FC(F)(F)Cn1c2cnccc2c2cc(Cl)cc(-c3ccc(N4CCOCC4)nc3)c21 [Example 86, 6-Chloro-8-(6-morpholin-4-yl-pyridin-3-yl)-9-(2,2,2-trifluoro-ethyl)-9H-pyrido[3,4-b]indole] | 750 | > 80
CN1CCN(c2ccc(-c3cc(Cl)cc4c5ccncc5n(CC(F)(F)F)c34)cn2)CC1 [Example 87, 6-Chloro-8-[6-(4-methyl-piperazin-1-yl)-pyridin-3-yl]-9-(2,2,2-trifluoro-ethyl)-9H-pyrido[3,4-b]indole] | 1500 | 50 to 80
FC(F)(F)Cn1c2cnccc2c2cc(Cl)cc(-c3ccc(C(F)(F)F)nc3)c21 [Example 88, 6-Chloro-9-(2,2,2-trifluoro-ethyl)-8-(6-trifluoromethyl-pyridin-3-yl)-9H-pyrido[3,4-b]indole] | 1700 | < 20
FC(F)(F)Cn1c2cnccc2c2cc(Cl)cc(-c3ccc(N4CCCCC4)nc3)c21 [Example 89, 6-Chloro-8-(3,4,5,6-tetrahydro-2H-[1,2′]bipyridinyl-5′-yl)-9-(2,2,2-trifluoro-ethyl)-9H-pyrido[3,4-b]indole] | > 10000 | > 80
CC#CCn1c2cnccc2c2cc(Cl)cc(-c3ccc(Cl)nc3)c21 [Example 90, 9-But-2-ynyl-6-chloro-8-(6-chloro-pyridin-3-yl)-9H-pyrido[3,4-b]indole] | > 10000 | < 20
CCn1c2c(-c3ccc(OC)nc3)cc(Cl)cc2c2ccnc(C)c21 [Example 91, 6-Chloro-9-ethyl-8-(6-methoxy-pyridin-3-yl)-1-methyl-9H-pyrido[3,4-b]indole] | 1500 | > 80
CCn1c2c(-c3cnc4[nH]ccc4c3)cc(Cl)cc2c2ccnc(C)c21 [Example 92, 6-Chloro-9-ethyl-1-methyl-8-(1H-pyrrolo[2,3-b]pyridin-5-yl)-9H-pyrido[3,4-b]indole] | 2500 | > 80
CCn1c2c(-c3ccc(N4CCOCC4)nc3)cc(Cl)cc2c2ccnc(C)c21 [Example 93, 6-Chloro-9-ethyl-1-methyl-8-(6-morpholin-4-yl-pyridin-3-yl)-9H-pyrido[3,4-b]indole] | 2200 | > 80
COc1ccc(-c2cc(Cl)cc3c2[nH]c2c(C)nccc23)cn1 [Example 94, 6-Chloro-8-(6-methoxy-pyridin-3-yl)-1-methyl-9H-pyrido[3,4-b]indole] | 750 | > 80
Cc1ccc(-c2cc(Cl)cc3c2[nH]c2c(C)nccc23)cn1 [Example 95, 6-Chloro-1-methyl-8-(6-methyl-pyridin-3-yl)-9H-pyrido[3,4-b]indole] | 680 | 50 to 80
Cc1nccc2c1[nH]c1c(-c3ccc(N4CCOCC4)nc3)cc(Cl)cc12 [Example 96, 6-Chloro-1-methyl-8-(6-morpholin-4-yl-pyridin-3-yl)-9H-pyrido[3,4-b]indole] | 850 | 50 to 80
Cc1nccc2c1[nH]c1c(-c3ccc(Cl)nc3Cl)cc(Br)cc12 [Example 98, 6-Bromo-8-(2,6-dichloro-pyridin-3-yl)-1-methyl-9H-pyrido[3,4-b]indole] | 2400 | > 80
COc1ncc(-c2cc(Cl)cc3c2[nH]c2c(C)nccc23)cc1F [Example 99, 6-Chloro-8-(5-fluoro-6-methoxy-pyridin-3-yl)-1-methyl-9H-pyrido[3,4-b]indole] | > 10000 | < 20
Cc1nccc2c1[nH]c1c(-c3ccc(C#N)nc3)cc(Cl)cc12 [Example 100, 5-(6-Chloro-1-methyl-9H-pyrido[3,4-b]indol-8-yl)-pyridine-2-carbonitrile] | 1000 | < 20
Cc1nccc2c1[nH]c1c(-c3ccc(N4CCCCC4)nc3)cc(Cl)cc12 [Example 101, 6-Chloro-1-methyl-8-(3,4,5,6-tetrahydro-2H-[1,2′]bipyridinyl-5′-yl)-9H-pyrido[3,4-b]indole] | 8200 | 20 to 50
Cc1nccc2c1[nH]c1c(-c3ccc(OC(C)C)nc3)cc(Cl)cc12 [Example 102, 6-Chloro-8-(6-isopropoxy-pyridin-3-yl)-1-methyl-9H-pyrido[3,4-b]indole] | 2100 | 20 to 50
COc1ccc(-c2cc(Cl)cc3c2[nH]c2c(C)nccc23)c(Cl)n1 [Example 103, 6-Chloro-8-(2-chloro-6-methoxy-pyridin-3-yl)-1-methyl-9H-pyrido[3,4-b]indole] | 1900 | > 80
COc1ccc(-c2cc(Cl)cc3c2[nH]c2c(C)nccc23)c(C)n1 [Example 104, 6-Chloro-8-(6-methoxy-2-methyl-pyridin-3-yl)-1-methyl-9H-pyrido[3,4-b]indole] | 3500 | > 80
CCc1nccc2c1[nH]c1c(-c3ccc(Cl)nc3Cl)cc(Cl)cc12 [Example 105, 6-Chloro-8-(2,6-dichloro-pyridin-3-yl)-1-ethyl-9H-pyrido[3,4-b]indole] | 1000 | 50 to 80
